In patent US20150125889A1, “IN VITRO DETECTION OF MICROORGANISMS WITH AZOREDUCTASE ACTIVITY” (BIOMÉRIEUX, priority 2012, published 2015):

Assays:
Assay in all cases: Reduction of azo substrates over 24 hours at 35° C., microtitration plate (Example 1)
Assay type in all cases: cell-based
Cronobacter muytjensii = tested on: Cronobacter muytjensii; design: key to RED (substrate reduced or not): RED indicates whether the substrate is reduced (Y) or not (N); RED indicates whether the substrate is reduced (Y) or not (N); key to Co (growth, absorbance at 660 nm) / Decol (substrate decolourized, decrease in absorbance) / Fluo (fluorescence multiplied by 2 relative to substrate-free control): The symbol “+” means good growth/decolourization/significant increase in fluorescence; The symbol “+/−” means difficult growth; The symbol “−” means that there is no growth/decolourization/significant increase in fluorescence; details: E. muytjensii, substrate 35 mg/l
Protocol: (§1) Reduction of the “azo” function of the substrates listed in Table I by the species listed in Table II, each species being represented by a strain, is tested in a microtitration plate.
(§2) The reaction medium consists of: • Trypcase soya broth • Substrate 35 mg/l • 0.5 MacFarland inoculum
(§3) The reduction of the substrate and the growth of the microorganisms are monitored using an Infinite® M200 Tecan microplate reader at 35° C. over 24 hours.
(§4) The growth is monitored by the absorbance at 660 nm and the reduction of the substrates by absorbance and fluorescence at the specific wavelengths indicated in Table III.
(§5) The substrate is considered as reduced by the microorganisms when the substrate is decolourized (monitored by the decrease in absorbance) (Decol) and/or when the fluorescence of the substrate is multiplied by 2 relative to the base fluorescence of a substrate-free control (Fluo). The growth is indicated by Co. The symbol “+” means good growth/decolourization/significant increase in fluorescence. The symbol “+/−” means difficult growth. The symbol “−” means that there is no growth/decolourization/significant increase in fluorescence. RED indicates whether the substrate is reduced (Y) or not (N).

Escherichia coli = tested on: Escherichia coli; design: key to RED (substrate reduced or not): RED indicates whether the substrate is reduced (Y) or not (N); RED indicates whether the substrate is reduced (Y) or not (N); key to Co (growth, absorbance at 660 nm) / Decol (substrate decolourized, decrease in absorbance) / Fluo (fluorescence multiplied by 2 relative to substrate-free control): The symbol “+” means good growth/decolourization/significant increase in fluorescence; The symbol “+/−” means difficult growth; The symbol “−” means that there is no growth/decolourization/significant increase in fluorescence; details: E. coli, substrate 35 mg/l
Protocol: as §1, §2, §3, §4, §5

Kocuria rosea = tested on: Kocuria rosea; design: key to RED (substrate reduced or not): RED indicates whether the substrate is reduced (Y) or not (N); RED indicates whether the substrate is reduced (Y) or not (N); key to Co (growth, absorbance at 660 nm) / Decol (substrate decolourized, decrease in absorbance) / Fluo (fluorescence multiplied by 2 relative to substrate-free control): The symbol “+” means good growth/decolourization/significant increase in fluorescence; The symbol “+/−” means difficult growth; The symbol “−” means that there is no growth/decolourization/significant increase in fluorescence; details: K. rosea, substrate 35 mg/l
Protocol: as §1, §2, §3, §4, §5

Pseudomonas aeruginosa = tested on: Pseudomonas aeruginosa; design: key to RED (substrate reduced or not): RED indicates whether the substrate is reduced (Y) or not (N); RED indicates whether the substrate is reduced (Y) or not (N); key to Co (growth, absorbance at 660 nm) / Decol (substrate decolourized, decrease in absorbance) / Fluo (fluorescence multiplied by 2 relative to substrate-free control): The symbol “+” means good growth/decolourization/significant increase in fluorescence; The symbol “+/−” means difficult growth; The symbol “−” means that there is no growth/decolourization/significant increase in fluorescence; details: P. aeruginosa, substrate 35 mg/l
Protocol: as §1, §2, §3, §4, §5

Staphylococcus aureus = tested on: Staphylococcus aureus; design: key to RED (substrate reduced or not): RED indicates whether the substrate is reduced (Y) or not (N); RED indicates whether the substrate is reduced (Y) or not (N); key to Co (growth, absorbance at 660 nm) / Decol (substrate decolourized, decrease in absorbance) / Fluo (fluorescence multiplied by 2 relative to substrate-free control): The symbol “+” means good growth/decolourization/significant increase in fluorescence; The symbol “+/−” means difficult growth; The symbol “−” means that there is no growth/decolourization/significant increase in fluorescence; details: S. aureus, substrate 35 mg/l
Protocol: as §1, §2, §3, §4, §5

[1] = tested on: Staphylococcus epidermidis; design: key to RED (substrate reduced or not): RED indicates whether the substrate is reduced (Y) or not (N); RED indicates whether the substrate is reduced (Y) or not (N); key to Co (growth, absorbance at 660 nm) / Decol (substrate decolourized, decrease in absorbance) / Fluo (fluorescence multiplied by 2 relative to substrate-free control): The symbol “+” means good growth/decolourization/significant increase in fluorescence; The symbol “+/−” means difficult growth; The symbol “−” means that there is no growth/decolourization/significant increase in fluorescence; details: S. epidermidis, substrate 35 mg/l
Protocol: as §1, §2, §3, §4, §5

Candida albicans = tested on: Candida albicans; design: key to RED (substrate reduced or not): RED indicates whether the substrate is reduced (Y) or not (N); RED indicates whether the substrate is reduced (Y) or not (N); key to Co (growth, absorbance at 660 nm) / Decol (substrate decolourized, decrease in absorbance) / Fluo (fluorescence multiplied by 2 relative to substrate-free control): The symbol “+” means good growth/decolourization/significant increase in fluorescence; The symbol “+/−” means difficult growth; The symbol “−” means that there is no growth/decolourization/significant increase in fluorescence; details: substrate 35 mg/l
Protocol: as §1, §2, §3, §4, §5

Geotrichum candidum = tested on: Geotrichum candidum; design: key to RED (substrate reduced or not): RED indicates whether the substrate is reduced (Y) or not (N); RED indicates whether the substrate is reduced (Y) or not (N); key to Co (growth, absorbance at 660 nm) / Decol (substrate decolourized, decrease in absorbance) / Fluo (fluorescence multiplied by 2 relative to substrate-free control): The symbol “+” means good growth/decolourization/significant increase in fluorescence; The symbol “+/−” means difficult growth; The symbol “−” means that there is no growth/decolourization/significant increase in fluorescence; details: G. candidum, substrate 35 mg/l
Protocol: as §1, §2, §3, §4, §5

Enterococcus faecalis = tested on: Enterococcus faecalis; design: key to RED (substrate reduced or not): RED indicates whether the substrate is reduced (Y) or not (N); RED indicates whether the substrate is reduced (Y) or not (N); key to Decol (substrate decolourized, decrease in absorbance) / Fluo (fluorescence multiplied by 2 relative to substrate-free control) / Co (growth, absorbance at 660 nm): The symbol “+” means good growth/decolourization/significant increase in fluorescence; The symbol “+/−” means difficult growth; The symbol “−” means that there is no growth/decolourization/significant increase in fluorescence; details: E. faecalis, substrate 35 mg/l
Protocol: as §1, §2, §3, §4, §5

Acinetobacter baumanii = tested on: Acinetobacter baumanii; design: key to RED (substrate reduced or not): RED indicates whether the substrate is reduced (Y) or not (N); RED indicates whether the substrate is reduced (Y) or not (N); key to Decol (substrate decolourized, decrease in absorbance) / Fluo (fluorescence multiplied by 2 relative to substrate-free control) / Co (growth, absorbance at 660 nm): The symbol “+” means good growth/decolourization/significant increase in fluorescence; The symbol “+/−” means difficult growth; The symbol “−” means that there is no growth/decolourization/significant increase in fluorescence; details: A. baumannii, substrate 35 mg/l
Protocol: as §1, §2, §3, §4, §5

Row | SMILES | Co (growth, absorbance at 660 nm) (Cronobacter muytjensii) | Decol (substrate decolourized, decrease in absorbance) (Cronobacter muytjensii) | Fluo (fluorescence multiplied by 2 relative to substrate-free control) (Cronobacter muytjensii) | RED (substrate reduced or not) (Cronobacter muytjensii) | Co (growth, absorbance at 660 nm) (Escherichia coli) | Decol (substrate decolourized, decrease in absorbance) (Escherichia coli) | Fluo (fluorescence multiplied by 2 relative to substrate-free control) (Escherichia coli) | RED (substrate reduced or not) (Escherichia coli) | Co (growth, absorbance at 660 nm) (Kocuria rosea) | Decol (substrate decolourized, decrease in absorbance) (Kocuria rosea) | Fluo (fluorescence multiplied by 2 relative to substrate-free control) (Kocuria rosea) | Co (growth, absorbance at 660 nm) (Pseudomonas aeruginosa) | Decol (substrate decolourized, decrease in absorbance) (Pseudomonas aeruginosa) | Fluo (fluorescence multiplied by 2 relative to substrate-free control) (Pseudomonas aeruginosa) | RED (substrate reduced or not) (Pseudomonas aeruginosa) | Co (growth, absorbance at 660 nm) (Staphylococcus aureus) | Decol (substrate decolourized, decrease in absorbance) (Staphylococcus aureus) | Fluo (fluorescence multiplied by 2 relative to substrate-free control) (Staphylococcus aureus) | RED (substrate reduced or not) (Staphylococcus aureus) | Co (growth, absorbance at 660 nm) [1] | other results
1 | Oc1ccc2ccccc2c1/N=N/c1ccc(/C=C/c2ccnc3ccccc23)cc1 [BF38, 4″-Quinoline-4′-styryl-azo-2-Hydroxynaphthol] | + | + | − | Y | + | + | − | Y | − | − | − | + | + | − | Y | + | + | − | Y | + | Decol (substrate decolourized, decrease in absorbance) [1]: +; Fluo (fluorescence multiplied by 2 relative to substrate-free control) [1]: −; RED (substrate reduced or not) [1]: Y; Co (growth, absorbance at 660 nm) (Candida albicans): +; Decol (substrate decolourized, decrease in absorbance) (Candida albicans): −; Fluo (fluorescence multiplied by 2 relative to substrate-free control) (Candida albicans): −; RED (substrate reduced or not) (Candida albicans): N; Co (growth, absorbance at 660 nm) (Geotrichum candidum): +; Decol (substrate decolourized, decrease in absorbance) (Geotrichum candidum): −; Fluo (fluorescence multiplied by 2 relative to substrate-free control) (Geotrichum candidum): −; RED (substrate reduced or not) (Geotrichum candidum): N; Co (growth, absorbance at 660 nm) (Enterococcus faecalis): +; Decol (substrate decolourized, decrease in absorbance) (Enterococcus faecalis): +; Fluo (fluorescence multiplied by 2 relative to substrate-free control) (Enterococcus faecalis): −; RED (substrate reduced or not) (Enterococcus faecalis): Y; Co (growth, absorbance at 660 nm) (Acinetobacter baumanii): +; Decol (substrate decolourized, decrease in absorbance) (Acinetobacter baumanii): −; Fluo (fluorescence multiplied by 2 relative to substrate-free control) (Acinetobacter baumanii): −; RED (substrate reduced or not) (Acinetobacter baumanii): N
2 | O=S(=O)([O-])c1ccc2c(N=Nc3cccc4ccccc34)c(O)c(S(=O)(=O)[O-])cc2c1.[Na+].[Na+] [Bordeaux B] | + | − | − | N | + | − | − | N | − | − | − | + | − | − | N | + | − | − | N | + | Decol (substrate decolourized, decrease in absorbance) [1]: −; Fluo (fluorescence multiplied by 2 relative to substrate-free control) [1]: −; RED (substrate reduced or not) [1]: N; Co (growth, absorbance at 660 nm) (Candida albicans): +; Decol (substrate decolourized, decrease in absorbance) (Candida albicans): −; Fluo (fluorescence multiplied by 2 relative to substrate-free control) (Candida albicans): −; RED (substrate reduced or not) (Candida albicans): N; Co (growth, absorbance at 660 nm) (Geotrichum candidum): +/−; Decol (substrate decolourized, decrease in absorbance) (Geotrichum candidum): −; Fluo (fluorescence multiplied by 2 relative to substrate-free control) (Geotrichum candidum): −; RED (substrate reduced or not) (Geotrichum candidum): N; Co (growth, absorbance at 660 nm) (Enterococcus faecalis): +; Decol (substrate decolourized, decrease in absorbance) (Enterococcus faecalis): +; Fluo (fluorescence multiplied by 2 relative to substrate-free control) (Enterococcus faecalis): +; RED (substrate reduced or not) (Enterococcus faecalis): Y; Co (growth, absorbance at 660 nm) (Acinetobacter baumanii): +; Decol (substrate decolourized, decrease in absorbance) (Acinetobacter baumanii): −; Fluo (fluorescence multiplied by 2 relative to substrate-free control) (Acinetobacter baumanii): −; RED (substrate reduced or not) (Acinetobacter baumanii): N
